Measurements as given in ChEMBL document CHEMBL1201862, “PubChem BioAssay data set” (2004).
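96-well plates; 48 h exposure; 5 concentrations. Endpoints by linear interpolation between flanking doses. Not reached: highest tested concentration assigned. GI50 marks 50% less growth.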 Activity calls are given as the source filed them. No stated cut-off is given here; in the data, active = GI50 up to about 1.1 µM and inactive = higher.

What was measured:
Test in all cases: NCI-60 cell line screen, 48 h
MDA-MB-435 = test system: MDA-MB-435
MCF7 = test system: MCF7
M14 = test system: M14
CCRF-CEM = test system: CCRF-CEM
NCI-H522 = test system: NCI-H522
IGROV-1 = test system: IGROV-1
HL-60 = test system: HL-60
SNB-19 = test system: SNB-19
TK-10 = test system: TK-10
COLO 205 = test system: COLO 205
SK-MEL-5 = test system: SK-MEL-5
HT-29 = test system: HT-29
UO-31 = test system: UO-31
UACC-62 = test system: UACC-62
RPMI-8226 = test system: RPMI-8226
SK-MEL-2 = test system: SK-MEL-2
786-0 = test system: 786-0
SF-268 = test system: SF-268
OVCAR-4 = test system: OVCAR-4
A498 = test system: A498

Measured: GI50

COC(CNC(=O)C(C)NC(=O)CCc1ccccc1)OC (stereo not drawn)
inactive: MDA-MB-435 > 100 µM | MCF7 > 100 µM | M14 > 100 µM | CCRF-CEM > 100 µM | NCI-H522 > 100 µM | IGROV-1 > 100 µM | HL-60 > 100 µM | SNB-19 > 100 µM | TK-10 > 100 µM | COLO 205 > 100 µM | SK-MEL-5 > 100 µM | HT-29 > 100 µM | UO-31 > 100 µM | UACC-62 > 100 µM | RPMI-8226 > 100 µM | SK-MEL-2 > 100 µM | 786-0 > 100 µM | SF-268 > 100 µM | OVCAR-4 > 100 µM

CCOC(=O)C(NC(=O)c1cccc(Cl)c1)(N1CCN(c2cc3c(cc2F)c(=O)c(C(=O)O)cn3C2CC2)CC1)C(F)(F)F (stereo not drawn)
inactive: MDA-MB-435 14.2 µM | M14 15.9 µM | CCRF-CEM 2.67 µM | IGROV-1 16.1 µM | HL-60 2.67 µM | SNB-19 22.2 µM | COLO 205 16.6 µM | SK-MEL-5 12.9 µM | UO-31 20.1 µM | UACC-62 15.3 µM | RPMI-8226 3.94 µM | A498 20 µM | SK-MEL-2 14.7 µM | 786-0 14.6 µM | SF-268 12.5 µM | OVCAR-4 15.7 µM

COc1nc(N)nc2c1n(C)c[n+]2C
inactive: MDA-MB-435 > 100 µM | M14 > 100 µM | CCRF-CEM > 100 µM | NCI-H522 > 100 µM | IGROV-1 > 100 µM | HL-60 > 100 µM | SNB-19 > 100 µM | TK-10 > 100 µM | COLO 205 > 100 µM | SK-MEL-5 > 100 µM | HT-29 > 100 µM | UO-31 > 100 µM | UACC-62 > 100 µM | RPMI-8226 > 100 µM | A498 > 100 µM | SK-MEL-2 > 100 µM | 786-0 > 100 µM | SF-268 > 100 µM

O=S(=O)(/N=S(/Nc1ccccc1)C(Cl)Cl)c1ccccc1 (stereo not drawn)
inactive: MDA-MB-435 > 100 µM | MCF7 > 100 µM | M14 > 100 µM | CCRF-CEM > 100 µM | IGROV-1 > 100 µM | HL-60 > 100 µM | SNB-19 > 100 µM | TK-10 > 100 µM | COLO 205 > 100 µM | HT-29 > 100 µM | UO-31 > 100 µM | UACC-62 > 100 µM | RPMI-8226 > 100 µM | SK-MEL-2 > 100 µM | 786-0 > 100 µM | SF-268 > 100 µM | OVCAR-4 > 100 µM

N#CCCC1(CCC#N)CCc2ccccc2C1=O
inactive: MDA-MB-435 > 100 µM | MCF7 > 100 µM | M14 > 100 µM | CCRF-CEM > 100 µM | NCI-H522 > 100 µM | IGROV-1 > 100 µM | HL-60 > 100 µM | SNB-19 > 100 µM | TK-10 > 100 µM | SK-MEL-5 > 100 µM | HT-29 > 100 µM | UO-31 > 100 µM | UACC-62 > 100 µM | RPMI-8226 > 100 µM | SK-MEL-2 > 100 µM | 786-0 > 100 µM | SF-268 > 100 µM | OVCAR-4 > 100 µM

CCN1C(=O)C(=C/C=C/c2ccc(OC)cc2)C(=O)N(CC)C1=S
inactive: MDA-MB-435 21.6 µM | MCF7 33.8 µM | M14 22.1 µM | CCRF-CEM 20.6 µM | IGROV-1 16.3 µM | HL-60 7.5 µM | SNB-19 37.9 µM | TK-10 17.5 µM | COLO 205 18.5 µM | SK-MEL-5 26.5 µM | HT-29 22.6 µM | UO-31 40.3 µM | UACC-62 16.7 µM | RPMI-8226 33.6 µM | SK-MEL-2 > 100 µM | 786-0 17.6 µM | SF-268 24.6 µM | OVCAR-4 95.5 µM

O=C(O)COc1cc(-c2ccccc2F)nc2cc3c(cc12)OCO3
inactive: MDA-MB-435 > 100 µM | MCF7 > 100 µM | M14 > 100 µM | CCRF-CEM > 100 µM | IGROV-1 > 100 µM | TK-10 > 100 µM | COLO 205 > 100 µM | SK-MEL-5 > 100 µM | HT-29 > 100 µM | UACC-62 > 100 µM | RPMI-8226 > 100 µM | SK-MEL-2 > 100 µM | 786-0 > 100 µM | SF-268 > 100 µM

COc1ccc(CC(C)N)cc1 (stereo not drawn) [PARA-METHOXYAMPHETAMINE]
inactive: M14 > 100 µM | CCRF-CEM > 100 µM | NCI-H522 > 100 µM | IGROV-1 > 100 µM | HL-60 > 100 µM | SNB-19 > 100 µM | TK-10 > 100 µM | COLO 205 > 100 µM | SK-MEL-5 > 100 µM | HT-29 > 100 µM | UO-31 > 100 µM | UACC-62 > 100 µM | RPMI-8226 > 100 µM | A498 > 100 µM | SK-MEL-2 > 100 µM | 786-0 > 100 µM | SF-268 > 100 µM | OVCAR-4 > 100 µM
